Measurements from US7001770B1, “Calpain inhibitors and their applications” (priority 1998, dated 2006).
Square brackets hold non-standard residues; d marks the D form. Peptide text beside a SMILES is read from it. Nle = CCCC[C@H](N)C(=O)O

Columns and labels:
[1] = test system: U87 cells; assay: Apoptosis by annexin V-FITC staining, flow cytometry; type: cell-based
Experimental: P53 was administered to the cells by the use of the replication defective adenoviral vector ACN53 described in Wills, et al., supra. The effect of varying concentrations of rAd-p53 (from 1×10^9 to 2×10^9 rAd-p53 particles/ml of solution) was investigated in combination with CI-1 in a range of 5–20 μm. The effects of individual and combination treatment was determined in the in DLD1, RKO, HLF and SK-Hep1 cells was investigated in substantial accordance with the teaching of Examples 2 and 3 herein. […] The results are presented in graphical format in FIG. 3 of the attached drawings. In brief, the results were as follows:
The effect of an inhibitor of μ-calpains, CI-1 (N-acetyl-leu-leu-norleucinal), was investigated for its ability to enhance p53 mediated apoptosis in tumor cell lines having p53+ and p53− status listed in Table1. […] To detect a G0/G1 block, bromodeoxyuridine (BrdU) incorporation followed by flow cytometric analysis was done 17 hours post-treatment as described in Example 4 herein. […] The results of these experiments are presented in FIGS. 1 and 2 of the attached drawings. In FIG. 1, each point on the graph represents percentage annexin V positive after background percentage (DMF alone) was subtracted.
An aliquot containing approximately 1×10^6 cells of each type was placed in a T-225 flask. The effect of varying concentrations of rAd-p53 (from 1×10^7 to 2×10^9ACN53 particles/ml of solution) was investigated in combination with CI-1 in a range of 5–20 μM. […]
(§1) Apoptosis was monitored visually by observing blebbed nuclei characteristic of apoptosis, by propidium iodide staining (using propidium iodide commercially available from Molecular Probes, Inc.) followed by flow cytometric analysis to look for subgenomic populations of cells, and by labeling cells with annexin V-FITC (commercially available from Boehringer Mannheim) in substantial accordance with the instructions provided by the manufacturer, followed by flow cytometric analysis on a FACScan Flow Cytometer (commercially available from Becton Dickinson).

[2] = test system: A549 cells; assay: as above; type: cell-based; conditions: 26 hours post treatment
Experimental: (§2) The effect of an inhibitor of μ-calpains, CI-1 (N-acetyl-leu-leu-norleucinal), was investigated for its ability to enhance p53 mediated apoptosis in tumor cell lines having p53+ and p53− status listed in Table1. Each cell line was treated with 5–50 μM CI-1 for 17–26 hours. To detect a G0/G1 block, bromodeoxyuridine (BrdU) incorporation followed by flow cytometric analysis was done 17 hours post-treatment as described in Example 4 herein. […] The results of these experiments are presented in FIGS. 1 and 2 of the attached drawings. In FIG. 1, each point on the graph represents percentage annexin V positive after background percentage (DMF alone) was subtracted.
(§3) CI-1 was obtained from Boehringer-Mannheim Biochemicals (Indianapolis, Ind.). The CI-1 containing media was prepared as follows. CI-1 was diluted in dimethylformamide (DMF) to a concentration of 33.3 μM/μl. The CI-1 solution in DMF was added to achieve a final concentration in the media of 5 or 10 μM final concentration of CI-1. An equivalent volume of DMF alone was added to the control cells. Calpain inhibitor 2, N-acetyl-leu—leu-methioninal (Boehringer Mannheim) was added to cell lines at 5–50 μM final concentration with or without rAd-p53 for 26 hours.
as §1, with “At a time of 17 (or 26 hours) post infection, the percentage of cells undergoing apoptosis was determined by convential apoptotic markers. Apoptosis” for “Apoptosis”

[3] = test system: Hep3B cells; assay: as above; type: cell-based; conditions: for Percent Annexin V Positive Staining: 26 hours post treatment
Experimental: as §2, §3
as §1, with “At a time of 17 (or 26 hours) post infection, the percentage of cells undergoing apoptosis was determined by convential apoptotic markers. Apoptosis” for “Apoptosis”

[4] = test system: NCI-H596 cells; assay: as above; type: cell-based; conditions: CI-1 treatment; p53 mutated lung cell line
Experimental: as §2, §3
as §1, with “At a time of 17 (or 26 hours) post infection, the percentage of cells undergoing apoptosis was determined by convential apoptotic markers. Apoptosis” for “Apoptosis”

[5] = test system: p53 protein levels in Hep3B cells (p53 null); assay: Western blot of p53 protein levels; type: cell-based; conditions: rAd-p53 in the presence of 10 μM calpain inhibitor 1 versus rAd53 alone; 17 hours
Experimental: To determine if increases in exogeneous p53 levels occurred in response to CI-1, the p53 null cell line Hep3B was infected with 1×10^9 particle/ml and assayed for p53 protein levels by western blots 17 hours post-infection. No p53 protein was detected in untreated Hep3B. p53 protein was detected in cells infected with rAd53 alone, and increased greater then 10 fold when infected with rAd-p53 in the presence of 10 μM calpain inhibitor 1. […] The enhancement of p53 stability by CI-1 may not, therefore, be the sole mechanism by which enhanced cell death has been achieved. […] Thus, a new mechanism of action is involved other than p53 stability in the increased induction of apoptosis by the combination of CI-1 and p53.
At 17 hours post treatment, cells were lysed in protein lysis buffer (50 mM tris, 250 mM NaCl, 50 mM NaF, 5 mM EDTA and 0.1% NP-40 with 1 mM PMSF). Cell lysates were subjected to electrophoresis. 10 μg of protein was added per lane on a 12% polyacrylamide gel and transfered onto nitrocellulose membranes. The membranes were subjected to western blot analysis using antibodies specific for p53 or p21 (Calbiochem, p53 antibody Ab-6, and p21 antibody Ab-7). […] Blots were developed using enhanced chemiluminescence detection system (Amersham) and quantitated using NIH imaging analysis.

[6] = test system: proteasome; conditions: below 50 μM primarily an inhibitor of calpain; cited from earlier work

Compound: CCCC[C@@H](C=O)NC(=O)[C@H](CC(C)C)NC(=O)[C@H](CC(C)C)NC(C)=O [CI-1, N-acetyl-leu-leu-norleucinal] (Ac-Leu-Leu-[Nle]-aldehyde)
- Percentage of Cells Undergoing Apoptosis ([1]; 10 μM CI-1, 24 hrs): 41%
- percentage of apoptotic cells ([1]; 20 μM CI-1 treatment, increase from 5%): 72%
- cells annexin V-FITC positive ([1]; calpain inhibitor 1, 10 μM for 4 days): ~100%
- Percent Annexin V Positive Staining ([2]; CI-1 10 μM): 6%
- Percent Annexin V Positive Staining ([2]; CI-1 20 μM): 5%
- Percent Annexin V Positive Staining ([2]; CI-1 50 μM): 18%
- Percent Annexin V Positive Staining ([3]; CI-1 20 μM): 36%
- Percent Annexin V Positive Staining ([3]; CI-1 50 μM): 32%
- increase in the percentage of apoptotic cells ([3]; highest concentration of inhibitor (50 μM), p53 null): no increase
- increase in the percent of cells annexin V positive in response to treatment [4]: no increase
- increase in p53 protein [5]: > 10 fold
- concentration above which CI-1 inhibits proteasome function [6]: above 50 μM
